These results are taken from article PMC4310329, “The length of a lantibiotic hinge region has profound influence on antimicrobial activity and host specificity” (Frontiers in Microbiology, 2015).

One experiment deals with M. luteus. In words: Agar well diffusion assay. Conditions: 20 °C; estimated from halo diameter by nisin standard curve, relative to wt. Format: cell-based, Micrococcus luteus. The method, then: (§1) L. lactis strains were cultured in M17 broth supplemented with 0.5% (w/v) glucose (GM17) or GM17 agar for genetic manipulation or in minimal expression medium (MEM) for protein expression at 30°C (Rink et al., [2005]). E. faecalis, S. aureus, S. pneumonia, and L. monocytogenes were grown in GM17 at 37°C or GM17 agar at different temperatures for agar diffusion assay. M. luteus was grown in Luria-Bertani broth shaken (200 rpm) at 30°C or LB agar at 20°C for agar diffusion assay. Bacillus strains were cultured in Brain Heart Infusion (BHI) shaken (200 rpm) or BHI agar at different temperatures for agar diffusion assay.
(§2) For the agar well diffusion assay, the same cultures as in the MIC value test were used and diluted 200 times with solid media. Identical sizes of wells (7.5 mm diameter) were made and 2 μg of hinge region analogs dissolved in 20 μl 0.05% acetic acid were added. The plates were incubated at different temperatures for at least 1 day until apparent halos appeared. For activity test at low temperature, the indicators were diluted in the same way but poured into smaller plates (52 mm diameter). The plates were incubated at 4°C overnight before the peptides were added. B. sporothermodurans IC4 and B. cereus 4153 were first incubated with the peptides at 4°C for 2 weeks then moved to 30°C and incubated overnight. The diameters of the halos were measured.
(§3) The antimicrobial activity of the hinge region analogs in solid media were tested by an agar well diffusion assay. The diameters of the halos were measured and the residual activity of the analogs were estimated according to the formula of the relationship between the concentration of nisin and the sizes of halos. We made use of the fact that the size of the halo is directly related to the log of nisin concentration. Of course this is an estimate of activity of the variants because any changes in diffusion of the variant bacteriocin or growth rates of indicator bacteria during the assay could also affect the size of the halo. (Table 5 and Supplementary Figure 1). The plates were shown in supplementary data (Supplementary Figures 2–8). […] And against L. lactis at 20°C, the inhibition zone was larger than nisin. […] The M. luteus grows quite fast at room temperature and only the +2 variant retained 55% of the activity of nisin. […]
(§4) To evaluate the activity of nisin on the agar plate, an agar well diffusion assay with gradient of nisin against Lactococcus lactis ( with two plasmids) was performed ( Supplementary Figur e 1 A). The diameter of the halos were measured (Supplementary Figure 1B). […]
(§5) the concentration of nisin is in liner relationship with diameter of the halos ( Supplementary Fi g u re 1C). According to the formula (1) , the relative activity of the peptides compared to nisin can be calculated b y the formula ( 2) .
(§6) Supplementary Figure 1. Relationship between concentration of nisin and diameter of the halos. (A) Agar well diffusion assay. Gradient concentration of nisin were made and dissolved in 30µl 0.05% acetic acid. Lactococcus lactis ( with two plasmids) was cultured overnight and diluted 250 times with GM17 agar before added to the plate. The final concentration of the cells was about 2×10^6 cells/milliliter. The plate was incubated for 1 da y. Concentrations of nisin were labeled. (B) log10 of the concentrati ons and diameters of the halo. (C) A linear curve w as made betw een t he diameters of the halo and log10s of the concentration of nisin. […]

A further experiment relates to L. monocytogenes. In words: Agar well diffusion assay. Format: cell-based, Listeria monocytogenes. The conditions noted are these: estimated from halo diameter by nisin standard curve, relative to wt. How it is done:
as §1, §2, §3, §4, §5
(§7) Supplementary Figure 1. Relationship between concentration of nisin and diameter of the halos. (A) Agar well diffusion assay. Gradient concentration of nisin were made and dissolved in 30µl 0.05% acetic acid. Lactococcus lactis ( with two plasmids) was cultured overnight and diluted 250 times with GM17 agar before added to the plate. The final concentration of the cells was about 2×10^6 cells/milliliter. The plate was incubated for 1 da y. Concentrations of nisin were labeled. (B) log10 of the concentrati ons and diameters of the halo. (C) A linear curve w as made betw een t he diameters of the halo and log10s of the concentration of nisin.
(§8) (1 picture or pasted object on this page, not shown here)
(§9) Last Name a uthor 1 et al. Running Title
(§10) C = concentration of nisin d° = diameter of the halo of wild t ype […]

For a further experiment, the system named is S. aureus. In words: Agar well diffusion assay. Conditions: 20 °C; estimated from halo diameter by nisin standard curve, relative to wt. Format: cell-based, Staphylococcus aureus. The method, then: as §1, §2, §3, §4, §5, §6
In a further experiment the test system is Micrococcus luteus. In words: MIC in liquid culture. Format: cell-based. The conditions noted are these: MIC value of nisin divided by that of the analog. How it is done:
as §1
(§11) The indicator strains were cultured until OD (600 nm) reached 0.5. Before MIC value test, the culture was diluted 1000 times to make the concentration of cells around 5 × 10^5 per milliliter. The test was performed using a temperature controlled plate reader [Tecan200 (Tecan Group AG)] and 96 well plate (Greiner Bio-one). 180 μl indicator strain culture mixed with 20 μl hinge region analogs with final concentration from 0.031 μg/ml–32 μg/ml was incubated at 30°C or 37°C for 18 h. OD (600 nm) was checked every 30 min. For aerobic strains, 2 min of shaking was performed before every check. The concentration of peptide without observed growth of indicator strains was considered as the MIC value.

Another experiment concerns Bacillus cereus 4153. The experiment is described as follows: MIC in liquid culture. The conditions noted are these: MIC value of nisin divided by that of the analog. It is filed as cell-based. How it is done: as §1, §11
Another experiment relates to Bacillus cereus 4147. The experiment is described as follows: MIC in liquid culture. It is filed as cell-based. Conditions: MIC value of nisin divided by that of the analog. The method, then:
as §1, §11

Experiment [1] has as its system Streptococcus pneumoniae R6. In words: MIC in liquid culture. It is filed as cell-based. The conditions noted are these: MIC value of nisin divided by that of the analog. The method, then:
as §1, §11

Experiment [2] has as its system Lactococcus lactis MG1363. The experiment is described as follows: MIC in liquid culture. Format: cell-based. Conditions: MIC value of nisin divided by that of the analog. The method, then: as §1, §11
Another experiment deals with Listeria monocytogenes. The experiment is described as follows: MIC in liquid culture. Format: cell-based. The conditions noted are these: MIC value of nisin divided by that of the analog. How it is done: as §1, §11
Experiment [3] has as its system Bacillus sporothermodurans IC4. In words: MIC in liquid culture. Conditions: MIC value of nisin divided by that of the analog. Format: cell-based. How it is done: as §1, §11
The test system of the next experiment is Staphylococcus aureus. In words: MIC in liquid culture. Format: cell-based. Conditions: MIC value of nisin divided by that of the analog. The method, then: as §1, §11
The test system of experiment [4] is Enterococcus faecalis VE14089. The experiment is described as follows: MIC in liquid culture. It is filed as cell-based. Conditions: MIC value of nisin divided by that of the analog. How it is done: as §1, §11
Experiment [5] has as its system Bacillus cereus (L′29) 16. In words: MIC in liquid culture. It is filed as cell-based. The conditions noted are these: MIC value of nisin divided by that of the analog. How it is done: as §1, §11
A further experiment concerns L. lactis MG1363. In words: Agar well diffusion assay. Format: cell-based, Lactococcus lactis. Conditions: relative to wt. How it is done:
as §1, §2, §3, §4, §5, §7, §8, §9, §10
(A growth-free zone around the sample is the usual read-out of agar diffusion tests.)

A further experiment has as its system E. faecalis VE14089. In words: Agar well diffusion assay. Format: cell-based, Enterococcus faecalis. Conditions: estimated from halo diameter by nisin standard curve, relative to wt. How it is done:
as §1, §2, §3, §4, §5, §7, §8, §9, §10

Setting [6] is: 20 °C, estimated from halo diameter by nisin standard curve (halo diameter vs log of nisin concentration).

For `C=C(NC(=O)[C@@H](NC(=O)[C@H](Cc1c[nH]cn1)NC(=O)[C@@H](NC(=O)[C@H](CO)NC(=O)[C@@H]1CS[C@@H](C)[C@H]2NC(=O)[C@H](C)NC(=O)[C@H](NC(=O)[C@H](CC(N)=O)NC(=O)[C@@H]3CS[C@@H](C)[C@@H](NC(=O)[C@H](CCCCN)NC(=O)[C@@H]4CS[C@@H](C)[C@@H](NC(=O)[C@@H]5CSC[C@@H](NC(=O)/C(=C/C)NC(=O)[C@@H](N)[C@@H](C)CC)C(=O)N[C@@H]([C@@H](C)CC)C(=O)NC(=C)C(=O)N[C@@H](CC(C)C)C(=O)N5)C(=O)N5CCC[C@H]5C(=O)NCC(=O)N4)C(=O)NCC(=O)N[C@@H](C)C(=O)N[C@@H](CC(C)C)C(=O)N[C@@H](CCSC)C(=O)NCC(=O)N3)[C@H](C)SC[C@H](NC2=O)C(=O)N[C@@H](Cc2c[nH]cn2)C(=O)N1)[C@@H](C)CC)C(C)C)C(=O)N[C@@H](CCCCN)C(=O)O` [−2], the Residual activity was 0% with M. luteus; 82% in the experiment on L. monocytogenes (20 °C); 76% in the experiment on L. monocytogenes (30 °C); 16% with S. aureus; 120% in the experiment on L. lactis MG1363 (setting [6]); 91% with L. lactis MG1363 (30 °C, estimated from halo diameter by nisin standard curve). Also, the Residual activity in the experiment with E. faecalis VE14089 (20 °C) was 36%; with E. faecalis VE14089 (30 °C) it was 77%; in the experiment on E. faecalis VE14089 (37 °C) it was 76%. Moreover, the “Residual activity of variants compared to nisin” value is on record as <25% in the experiment on Micrococcus luteus; <13% with Bacillus cereus 4153; <13% in the experiment on Bacillus cereus 4147; 13% in [1]; 6% in [2]; <25% with Listeria monocytogenes. Moreover, the “Residual activity of variants compared to nisin” value in experiment [3] is 13%; with Staphylococcus aureus, <3%; in [4] it was <6%; in experiment [5] it was <13%.

With `C=C(NC(=O)[C@@H](NC(=O)[C@H](Cc1c[nH]cn1)NC(=O)[C@@H](NC(=O)[C@H](CO)NC(=O)[C@@H]1CS[C@@H](C)[C@H]2NC(=O)[C@H](C)NC(=O)[C@H](NC(=O)[C@H](CCCCN)NC(=O)[C@H](CCSC)NC(=O)[C@H](CC(C)C)NC(=O)[C@H](CC(N)=O)NC(=O)[C@@H]3CS[C@@H](C)[C@@H](NC(=O)[C@H](CCCCN)NC(=O)[C@@H]4CS[C@@H](C)[C@@H](NC(=O)[C@@H]5CSC[C@@H](NC(=O)/C(=C/C)NC(=O)[C@@H](N)[C@@H](C)CC)C(=O)N[C@@H]([C@@H](C)CC)C(=O)NC(=C)C(=O)N[C@@H](CC(C)C)C(=O)N5)C(=O)N5CCC[C@H]5C(=O)NCC(=O)N4)C(=O)NCC(=O)N[C@@H](C)C(=O)N[C@@H](CC(C)C)C(=O)N[C@@H](CCSC)C(=O)NCC(=O)N3)[C@H](C)SC[C@H](NC2=O)C(=O)N[C@@H](Cc2c[nH]cn2)C(=O)N1)[C@@H](C)CC)C(C)C)C(=O)N[C@@H](CCCCN)C(=O)O` [+1], the Residual activity with M. luteus is 9%; with L. monocytogenes (20 °C), 72%; with S. aureus, 27%; in the experiment on L. lactis MG1363 (setting [6]) it was 122%; in the experiment on E. faecalis VE14089 (20 °C), 72%; with E. faecalis VE14089 (37 °C), 82%. Besides, the “Residual activity of variants compared to nisin” value turned out to be 25% with Micrococcus luteus; 25% in the experiment with Bacillus cereus 4153; 25% in the experiment on Bacillus cereus 4147; 17% in experiment [1]; 25% in experiment [2]; 25% in the experiment with Listeria monocytogenes. The “Residual activity of variants compared to nisin” value in the experiment with Staphylococcus aureus is reported as 6%; in [5], 25%.
